Results on 15 molecules are retold here after PubChem BioAssay (NCI).

Holding throughout (assay): growth of human tumour cells (NCI), 48 h
In assay [1] the test system is T-47D breast.
Assay [2] concerns U251 CNS.
The test system of assay [3] is HCC-2998 colon.
Assay [4] concerns EKVX NSCLC.
The subject of assay [5] is A549 NSCLC.
Assay [6] has as its system HCT-116 colon.
Assay [7] has as its system A498 renal.
Assay [8] deals with PC-3 prostate.
Assay [9] has as its system SK-MEL-5 melanoma.
Assay [10] has as its system HOP-62 NSCLC.
Assay [11] relates to SR leukemia.
In assay [12] the test system is TK-10 renal.
Assay [13] concerns NCI-H23 lung.
Assay [14] relates to SNB-75 CNS.
The subject of assay [15] is UACC-62 melanoma.
The subject of assay [16] is UO-31 renal.
Assay [17] concerns SNB-19 CNS.
Assay [18] deals with HCT-15 colon.
For assay [19], the system named is SK-MEL-2 melanoma.
For assay [20], the system named is RPMI-8226 leukemia.

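48-hour exposure; five concentrations; linearly interpolated endpoints. TGI is the concentration that stops growth completely.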

In the case of `CC1(C)CO[P@@](=S)(c2ccccn2)O[C@@H]1c1ccccc1`, the TGI in assay [1], in assay [2], in assay [3], in [4], in assay [5] and in assay [6] was more than 100 µM each time. Also, the TGI in [7], in assay [8], in assay [9], in assay [10], in assay [11] and in [12] was more than 100 µM throughout. The TGI in [13], in [14], in assay [15], in assay [16], in assay [17] and in assay [18] was more than 100 µM in each case.

Turning to `O=C(Nc1cccc(F)c1)c1cc2ccc(O)cc2oc1=Nc1cccc(F)c1`, the TGI in assay [1] is 42.2 µM; in assay [2], more than 100 µM; in assay [3], more than 100 µM; in assay [4], 26.3 µM; in [5], more than 100 µM; in assay [6] it was more than 100 µM. Besides, the TGI in [7] is more than 100 µM; in assay [8], more than 100 µM; in assay [9], 14.7 µM; in [10] it was more than 100 µM; in assay [11], more than 100 µM; in [13], 6.12 µM. For the same molecule, the TGI is more than 100 µM in assay [15]; more than 100 µM in [16]; more than 100 µM in [17]; 60.1 µM in assay [18]; more than 100 µM in [19]; more than 100 µM in [20].

With `O=C1C[C@@]23CCC4(CC2CCC[C@H]3O1)OCCO4` (some centres not stated), the TGI in [1], in assay [2], in [3], in [4], in [5] and in [6] was more than 100 µM throughout. The TGI in assay [7], in assay [8], in [9], in assay [10], in assay [11] and in assay [13] was more than 100 µM throughout. In addition, the TGI in assay [15], in [17], in [18], in [19] and in [20] was more than 100 µM throughout.

As for `Cc1cccc2oc3c(c(=O)c12)CC(O)C(C)(C)O3` (configuration not stated), the TGI in [1], in assay [2], in assay [3], in assay [4], in assay [5] and in assay [6] was more than 100 µM each time. For the same molecule, the TGI in [7], in assay [8], in assay [9], in assay [10], in assay [11] and in assay [12] was more than 100 µM in each case. Also, the TGI in assay [13], in assay [15], in assay [16], in assay [17], in assay [18] and in [19] was more than 100 µM throughout. In addition, the TGI in assay [20] was more than 100 µM.

Consider `N#Cc1c(=O)c2ccccc2n2ccccc12`, for which the TGI in [1], in assay [2], in assay [3], in assay [5], in [6] and in assay [7] was more than 100 µM each time. Moreover, the TGI in assay [8], in [9], in assay [11], in assay [12], in assay [13] and in [14] was more than 100 µM each time. Further, the TGI in [15] was more than 100 µM; in assay [16], more than 100 µM; in [17] it was more than 100 µM; in [18], more than 100 µM; in [19] it was 90.8 µM; in [20] it was more than 100 µM.

Turning to `O=C(/C=C1\Sc2ccccc2N=C1CC(=O)c1ccccc1)c1ccccc1`, the TGI in assay [1] stood at 75.5 µM; in [2], 18.2 µM; in assay [3] it was 26.2 µM; in assay [4] it was 37.4 µM; in [5] it was 25.1 µM; in assay [6], 19.2 µM. For the same molecule, the TGI was more than 100 µM in assay [7]; more than 100 µM in assay [8]; 19 µM in assay [9]; 19.8 µM in assay [10]; 16 µM in assay [11]; 45.2 µM in [12]. Further, the TGI in assay [13] was more than 100 µM; in assay [16], 31.5 µM; in [17], more than 100 µM; in [18] it was more than 100 µM; in assay [19], 87.2 µM; in assay [20], 26.3 µM.

`Nc1ccccc1C#CC(=O)c1cccc(C(F)(F)F)c1`: the TGI in [1] was more than 100 µM; in assay [2], 3.95 µM; in assay [4] it was 38 µM; in assay [5], 33.6 µM; in assay [6], more than 100 µM; in [7] it was 32.5 µM. The TGI in assay [8] is 12 µM; in assay [9] it was 6.17 µM; in assay [10], 27.9 µM; in assay [11] it was more than 100 µM; in assay [12], 39.1 µM; in [13], 4.71 µM. The TGI was 27.4 µM in assay [14]; 3.85 µM in assay [15]; 2.55 µM in assay [16]; 27.6 µM in [17]; 2.54 µM in assay [19]; 5.4 µM in [20].

On to `COc1ccc2cc(CNCCCCCCCCNCc3ccc4cc(OC)ccc4c3)ccc2c1`, for which the TGI in [1] is 91 µM; in assay [2], 6.66 µM; in [3], 31.8 µM; in assay [5], more than 100 µM; in assay [6], more than 100 µM; in assay [7], 9.68 µM. Further, the TGI was 6.91 µM in [8]; more than 100 µM in [9]; 10.2 µM in assay [10]; 2.76 µM in assay [11]; 5.2 µM in assay [12]; more than 100 µM in assay [13]. Also, the TGI in assay [14] was 11.1 µM; in [15], 3.79 µM; in assay [17], 7.83 µM; in assay [18], more than 100 µM; in assay [19], 24.7 µM; in assay [20], 12.2 µM.

With `O=C(N=Nc1ccc(Cl)cc1Cl)NNc1ccc(Cl)cc1Cl`, the TGI in assay [1] came out at 77.3 µM; in assay [2] it was 36.2 µM; in assay [3], 23.9 µM; in assay [5], 46.7 µM; in assay [6] it was 28.7 µM; in assay [7], 33.1 µM. Moreover, the TGI in assay [8] came to 34.8 µM; in assay [9], 29.2 µM; in assay [10], 18.6 µM; in assay [11], 78.3 µM; in assay [12], 55.5 µM; in [13], 53 µM. The TGI was more than 100 µM in assay [14]; 29 µM in assay [15]; 37.5 µM in assay [16]; more than 100 µM in assay [17]; 46.8 µM in assay [18]; 27 µM in [19]. Also, the TGI in [20] amounted to 61.9 µM.

As to `Cc1ccc(S(=O)(=O)CNC(=O)C(O)(O)C(F)(F)F)cc1`, the TGI in assay [1], in assay [2], in assay [3], in assay [4], in assay [5] and in assay [6] was more than 100 µM throughout. Besides, the TGI in assay [7], in [8], in [9], in assay [10], in [11] and in [12] was more than 100 µM in each case. Besides, the TGI in assay [13], in [15], in [16], in assay [17], in assay [18] and in assay [19] was more than 100 µM each time. In assay [20], this molecule displayed a TGI of more than 100 µM.

`O=c1[nH]c(SCc2cccc([N+](=O)[O-])c2)nc2nc[nH]c12`: the TGI in [1], in assay [2], in assay [4], in assay [5], in assay [6] and in assay [7] was more than 100 µM in each case. Moreover, the TGI in assay [8], in assay [9], in [10], in assay [11], in assay [12] and in assay [13] was more than 100 µM each time. Moreover, the TGI in assay [14], in assay [15], in assay [16], in assay [17], in [18] and in [19] was more than 100 µM each time. In addition, the TGI in [20] was more than 100 µM.

With `CC(=O)O[C@H]1CC[C@@]2(C)C(=CC[C@@H]3[C@@H]2CC[C@]2(C)c4c(n[nH]c4C)C[C@@H]32)C1`, the TGI in [1] amounted to 25 µM; in assay [2], 31.3 µM; in [3] it was 34.1 µM; in assay [4], 34.7 µM; in assay [5], 33.9 µM; in assay [6], 44.5 µM. The TGI came to 41 µM in [7]; 58.2 µM in assay [8]; 29.5 µM in [9]; 37.8 µM in assay [10]; 58.7 µM in [11]; 34.2 µM in assay [12]. For the same molecule, the TGI in assay [13] amounted to 34.5 µM; in [14] it was 25.3 µM; in assay [15], 25 µM; in assay [16] it was 33.8 µM; in [17], 42.3 µM; in assay [18], 34.2 µM.

As to `O=c1[nH]nc(-c2ccccc2)n1/N=C/c1ccccc1O`, the TGI in assay [1], in assay [2], in [3], in assay [4], in assay [5] and in [6] was more than 100 µM in each case. Moreover, the TGI in [7], in [8], in [9], in [11], in [12] and in [13] was more than 100 µM each time. Also, the TGI in assay [15], in assay [16], in assay [17], in assay [18], in assay [19] and in assay [20] was more than 100 µM each time.

Regarding `CC(=O)NC1(NC(C)=O)C2CC(C1Cc1ccccc1)C(C)(C)C2C` (configuration not stated), the TGI in [1], in [2], in assay [3], in assay [4], in assay [5] and in assay [6] was more than 100 µM throughout. In addition, the TGI in assay [7], in assay [8], in assay [9], in assay [10], in assay [11] and in [12] was more than 100 µM in each case. In addition, the TGI in [13], in assay [14], in [15], in assay [16] and in assay [17] was more than 100 µM in each case.

As to `COC1(C2c3ccccc3CCN2C(=O)OC(C)(C)C)C(=O)C(c2ccccc2)=C1N(C)C` (configuration not stated), the TGI in assay [1] was more than 100 µM; in [2] it was more than 100 µM; in assay [4], more than 100 µM; in [5] it was more than 100 µM; in assay [6], 96.9 µM; in [7], 62.6 µM. For the same molecule, the TGI is 82.4 µM in [8]; 58.9 µM in assay [9]; more than 100 µM in assay [10]; more than 100 µM in assay [11]; more than 100 µM in [12]; 71.6 µM in assay [13]. Moreover, the TGI in [14] was more than 100 µM; in [15] it was more than 100 µM; in assay [16] it was 64.4 µM; in assay [17], more than 100 µM; in [18] it was more than 100 µM; in [19], 66.5 µM.
